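Following 48 hours of exposure in 96-well plates, responses at five concentrations were used to interpolate endpoints linearly. Abbreviation: GI50, concentration required for 50% inhibition of growth.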 Activity calls are given as the source filed them. Rule as the data show it: active = GI50 up to about 1.1 µM and inactive = higher.
How the values were obtained:
Assay in all cases: DTP human tumour cell line panel, 48 h
[1] = test system: SNB-75
[2] = test system: Hs-578T
[3] = test system: EKVX
[4] = test system: MCF7
[5] = test system: OVCAR-5
[6] = test system: NCI-H522
[7] = test system: OVCAR-3
[8] = test system: UACC-257
[9] = test system: M14
[10] = test system: SK-MEL-28
[11] = test system: CAKI-1
[12] = test system: A549
[13] = test system: HOP-62
[14] = test system: IGROV-1
[15] = test system: OVCAR-4
[16] = test system: DU-145
[17] = test system: ACHN
[18] = test system: PC-3
[19] = test system: MDA-N
[20] = test system: SK-MEL-2
[21] = test system: SW-620
[22] = test system: NCI/ADR-RES
[23] = test system: SF-295
[24] = test system: SN12C
[25] = test system: KM12
[26] = test system: TK-10
[27] = test system: LOX IMVI
[28] = test system: SF-268
[29] = test system: HOP-92
[30] = test system: U-251
[31] = test system: HT-29
[32] = test system: RXF 393
[33] = test system: MOLT-4
[34] = test system: SR
[35] = test system: CCRF-CEM
[36] = test system: NCI-H460
[37] = test system: HCT-15
[38] = test system: MDA-MB-435
[39] = test system: HL-60
[40] = test system: UACC-62
[41] = test system: HCC 2998
[42] = test system: COLO 205
[43] = test system: RPMI-8226
[44] = test system: T47D
[45] = test system: Malme-3M
[46] = test system: NCI-H23
[47] = test system: HCT-116
[48] = test system: OVCAR-8
[49] = test system: SNB-19
[50] = test system: 786-0
[51] = test system: K562
[52] = test system: BT-549
[53] = test system: UO-31
[54] = test system: SK-OV-3
[55] = test system: SK-MEL-5
[56] = test system: NCI-H226
[57] = test system: SF-539

For `CCCNC(=O)Cn1c(C)cc2ccccc21`, which GI50 [1] is on record?
Its GI50 is > 100 µM (inactive).

And the GI50 [2]?
Its GI50 is > 100 µM (inactive).

And the GI50 [3]?
Its GI50 is > 100 µM (inactive).

And the GI50 [4]?
The GI50 was > 100 µM (inactive).

And the GI50 [5]?
Its GI50 is > 100 µM (inactive).

And the GI50 [6]?
Its GI50 is > 100 µM (inactive).

And the GI50 [7]?
The GI50 was > 100 µM (inactive).

And the GI50 [8]?
Its GI50 is > 100 µM (inactive).

And the GI50 [9]?
Its GI50 is > 100 µM (inactive).

And the GI50 [10]?
Its GI50 is > 100 µM (inactive).

What about the GI50 [11] of the same molecule?
The GI50 was > 100 µM (inactive).

And the GI50 [12]?
The GI50 was > 100 µM (inactive).

And the GI50 [13]?
Its GI50 is > 100 µM (inactive).

What about the GI50 [14] of the same molecule?
The GI50 was > 100 µM (inactive).

What about the GI50 [15] of the same molecule?
The GI50 was > 100 µM (inactive).

And the GI50 [16]?
Its GI50 is > 100 µM (inactive).

And the GI50 [17]?
Its GI50 is > 100 µM (inactive).

And the GI50 [18]?
Its GI50 is > 100 µM (inactive).

And the GI50 [19]?
The GI50 was > 100 µM (inactive).

What about the GI50 [20] of the same molecule?
Its GI50 is > 100 µM (inactive).

And the GI50 [21]?
The GI50 was > 100 µM (inactive).

And the GI50 [22]?
The GI50 was > 100 µM (inactive).

What about the GI50 [23] of the same molecule?
The GI50 was > 10 µM (inactive).

What about the GI50 [24] of the same molecule?
Its GI50 is > 100 µM (inactive).

What about the GI50 [25] of the same molecule?
Its GI50 is > 100 µM (inactive).

And the GI50 [26]?
Its GI50 is > 100 µM (inactive).

What about the GI50 [27] of the same molecule?
Its GI50 is > 100 µM (inactive).

And the GI50 [28]?
The GI50 was > 100 µM (inactive).

What about the GI50 [29] of the same molecule?
The GI50 was > 100 µM (inactive).

What about the GI50 [30] of the same molecule?
The GI50 was > 100 µM (inactive).

And the GI50 [31]?
The GI50 was > 100 µM (inactive).

And the GI50 [32]?
Its GI50 is > 100 µM (inactive).

And the GI50 [33]?
Its GI50 is > 100 µM (inactive).

What about the GI50 [34] of the same molecule?
Its GI50 is > 100 µM (inactive).

What about the GI50 [35] of the same molecule?
Its GI50 is > 100 µM (inactive).

And the GI50 [36]?
The GI50 was > 10 µM (inactive).

And the GI50 [37]?
Its GI50 is greater than 100 µM.

And the GI50 [38]?
The GI50 was > 100 µM (inactive).

What about the GI50 [39] of the same molecule?
The GI50 was > 100 µM (inactive).

And the GI50 [40]?
The GI50 was > 100 µM (inactive).

And the GI50 [41]?
The GI50 was > 100 µM (inactive).

And the GI50 [42]?
The GI50 was > 100 µM (inactive).

And the GI50 [43]?
The GI50 was > 100 µM (inactive).

What about the GI50 [44] of the same molecule?
Its GI50 is > 100 µM (inactive).

And the GI50 [45]?
The GI50 was > 100 µM (inactive).

What about the GI50 [46] of the same molecule?
The GI50 was > 100 µM (inactive).

And the GI50 [47]?
The GI50 was > 100 µM (inactive).

What about the GI50 [48] of the same molecule?
The GI50 was > 100 µM (inactive).

What about the GI50 [49] of the same molecule?
Its GI50 is > 100 µM (inactive).

What about the GI50 [50] of the same molecule?
Its GI50 is > 100 µM (inactive).

What about the GI50 [51] of the same molecule?
The GI50 was > 100 µM (inactive).

What about the GI50 [52] of the same molecule?
The GI50 was > 100 µM (inactive).

What about the GI50 [53] of the same molecule?
Its GI50 is > 100 µM (inactive).

And the GI50 [54]?
Its GI50 is > 100 µM (inactive).

And the GI50 [55]?
Its GI50 is > 100 µM (inactive).

And the GI50 [56]?
The GI50 was > 100 µM (inactive).

And the GI50 [57]?
The GI50 was > 100 µM (inactive).

Source: ChEMBL document CHEMBL1201862, “PubChem BioAssay data set” (2004)
